Assay in all cases: biochemical
Design in all cases: KINOMEscan scanMAX competition binding, DNA-tagged kinases, qPCR read-out, percent control at 300 nM
A general note: Quantitative PCR measures a nucleic acid by following its amplification.

Assay [1] concerns the target CAMK1D (Homo sapiens, UniProt Q8IU85).
Assay [2] concerns the target T1, FLT3 (Homo sapiens, UniProt P36888).
T1 sequence (P36888 1-993): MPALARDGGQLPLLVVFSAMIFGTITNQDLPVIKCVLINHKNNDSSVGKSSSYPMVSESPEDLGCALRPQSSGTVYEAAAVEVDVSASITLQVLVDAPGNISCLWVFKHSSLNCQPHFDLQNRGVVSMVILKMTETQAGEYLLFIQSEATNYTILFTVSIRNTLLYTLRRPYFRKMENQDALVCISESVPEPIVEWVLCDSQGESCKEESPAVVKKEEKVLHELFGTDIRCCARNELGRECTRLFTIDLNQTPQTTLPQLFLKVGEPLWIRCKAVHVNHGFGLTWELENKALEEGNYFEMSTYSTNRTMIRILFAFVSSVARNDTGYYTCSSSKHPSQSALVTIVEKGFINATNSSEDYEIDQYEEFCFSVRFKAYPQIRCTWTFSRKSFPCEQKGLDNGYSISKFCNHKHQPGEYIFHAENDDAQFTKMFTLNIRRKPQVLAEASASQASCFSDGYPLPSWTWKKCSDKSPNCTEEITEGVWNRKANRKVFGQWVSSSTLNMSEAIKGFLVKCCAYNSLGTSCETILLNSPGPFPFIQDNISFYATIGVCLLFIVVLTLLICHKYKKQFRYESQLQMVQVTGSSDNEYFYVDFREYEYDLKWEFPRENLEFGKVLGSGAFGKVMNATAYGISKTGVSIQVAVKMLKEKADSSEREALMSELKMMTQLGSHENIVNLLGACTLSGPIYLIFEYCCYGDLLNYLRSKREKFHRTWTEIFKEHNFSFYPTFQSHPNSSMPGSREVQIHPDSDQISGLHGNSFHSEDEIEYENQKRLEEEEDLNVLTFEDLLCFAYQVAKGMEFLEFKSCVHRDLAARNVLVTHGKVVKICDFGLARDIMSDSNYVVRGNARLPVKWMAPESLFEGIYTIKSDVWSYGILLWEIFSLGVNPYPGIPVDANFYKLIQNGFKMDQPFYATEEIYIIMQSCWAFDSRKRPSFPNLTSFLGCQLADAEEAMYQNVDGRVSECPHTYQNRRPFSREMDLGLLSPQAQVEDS

Assay [3] concerns the target T2, PRKX (Homo sapiens, UniProt P51817).
T2 sequence (P51817 1-358): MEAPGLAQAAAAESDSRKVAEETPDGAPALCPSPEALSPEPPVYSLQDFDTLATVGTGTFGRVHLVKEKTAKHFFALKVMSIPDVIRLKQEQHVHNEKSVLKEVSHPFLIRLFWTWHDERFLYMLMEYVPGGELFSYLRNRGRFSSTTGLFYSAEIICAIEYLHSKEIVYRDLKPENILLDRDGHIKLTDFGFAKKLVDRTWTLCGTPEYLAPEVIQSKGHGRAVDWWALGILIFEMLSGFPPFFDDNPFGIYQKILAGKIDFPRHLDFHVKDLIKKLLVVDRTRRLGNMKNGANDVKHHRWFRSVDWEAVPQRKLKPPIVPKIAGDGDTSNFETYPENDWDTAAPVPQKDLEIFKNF

Assay [4] deals with RET(V804M) (Homo sapiens, UniProt P07949, V804M).
Chain of RET(V804M) (P07949 whole entry V804M): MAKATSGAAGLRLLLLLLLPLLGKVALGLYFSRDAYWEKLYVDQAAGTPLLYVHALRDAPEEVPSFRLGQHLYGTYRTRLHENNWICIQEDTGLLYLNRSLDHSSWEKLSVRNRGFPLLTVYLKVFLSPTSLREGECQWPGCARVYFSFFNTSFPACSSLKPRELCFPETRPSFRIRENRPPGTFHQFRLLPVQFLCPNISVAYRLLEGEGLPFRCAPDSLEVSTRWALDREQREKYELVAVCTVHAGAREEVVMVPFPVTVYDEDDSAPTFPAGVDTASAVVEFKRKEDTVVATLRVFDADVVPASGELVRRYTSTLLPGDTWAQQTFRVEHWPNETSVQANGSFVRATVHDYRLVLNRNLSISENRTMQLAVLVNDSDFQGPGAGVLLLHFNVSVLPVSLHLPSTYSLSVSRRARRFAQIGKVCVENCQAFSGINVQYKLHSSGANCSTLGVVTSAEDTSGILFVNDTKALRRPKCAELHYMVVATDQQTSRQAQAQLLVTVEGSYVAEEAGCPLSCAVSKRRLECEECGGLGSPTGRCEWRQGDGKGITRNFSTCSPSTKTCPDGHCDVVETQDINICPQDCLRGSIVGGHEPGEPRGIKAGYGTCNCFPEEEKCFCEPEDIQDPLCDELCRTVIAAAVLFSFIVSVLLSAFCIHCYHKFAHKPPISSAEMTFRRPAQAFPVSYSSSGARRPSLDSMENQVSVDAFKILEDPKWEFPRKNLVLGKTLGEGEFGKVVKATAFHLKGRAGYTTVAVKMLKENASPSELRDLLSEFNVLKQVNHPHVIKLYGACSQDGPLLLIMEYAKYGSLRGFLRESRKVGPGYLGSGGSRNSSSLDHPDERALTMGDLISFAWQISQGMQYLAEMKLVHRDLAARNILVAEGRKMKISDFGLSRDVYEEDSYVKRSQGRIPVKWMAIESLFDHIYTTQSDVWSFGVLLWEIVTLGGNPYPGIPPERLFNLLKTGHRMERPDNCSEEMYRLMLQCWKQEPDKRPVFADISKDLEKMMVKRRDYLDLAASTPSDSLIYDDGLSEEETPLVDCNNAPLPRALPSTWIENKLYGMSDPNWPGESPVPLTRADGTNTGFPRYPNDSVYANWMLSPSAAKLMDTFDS
The target of assay [5] is STK33 (Homo sapiens, UniProt Q9BYT3).
Chain of STK33 (Q9BYT3 whole entry): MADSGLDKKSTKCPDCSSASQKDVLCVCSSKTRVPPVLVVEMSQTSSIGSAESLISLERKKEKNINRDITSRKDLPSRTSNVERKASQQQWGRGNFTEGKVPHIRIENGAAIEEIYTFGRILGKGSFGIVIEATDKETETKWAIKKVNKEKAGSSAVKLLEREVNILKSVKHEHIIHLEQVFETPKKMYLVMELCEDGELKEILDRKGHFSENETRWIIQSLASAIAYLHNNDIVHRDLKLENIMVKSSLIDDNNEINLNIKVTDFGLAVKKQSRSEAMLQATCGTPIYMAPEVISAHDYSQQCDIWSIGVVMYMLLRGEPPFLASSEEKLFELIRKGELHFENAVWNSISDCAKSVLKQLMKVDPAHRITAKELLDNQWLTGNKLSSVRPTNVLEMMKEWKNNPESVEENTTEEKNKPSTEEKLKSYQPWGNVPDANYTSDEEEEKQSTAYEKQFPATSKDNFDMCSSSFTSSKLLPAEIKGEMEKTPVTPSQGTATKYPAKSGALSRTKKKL
In assay [6] the target is T3, ULK1 (Homo sapiens, UniProt O75385).
T3 sequence (O75385 1-1050): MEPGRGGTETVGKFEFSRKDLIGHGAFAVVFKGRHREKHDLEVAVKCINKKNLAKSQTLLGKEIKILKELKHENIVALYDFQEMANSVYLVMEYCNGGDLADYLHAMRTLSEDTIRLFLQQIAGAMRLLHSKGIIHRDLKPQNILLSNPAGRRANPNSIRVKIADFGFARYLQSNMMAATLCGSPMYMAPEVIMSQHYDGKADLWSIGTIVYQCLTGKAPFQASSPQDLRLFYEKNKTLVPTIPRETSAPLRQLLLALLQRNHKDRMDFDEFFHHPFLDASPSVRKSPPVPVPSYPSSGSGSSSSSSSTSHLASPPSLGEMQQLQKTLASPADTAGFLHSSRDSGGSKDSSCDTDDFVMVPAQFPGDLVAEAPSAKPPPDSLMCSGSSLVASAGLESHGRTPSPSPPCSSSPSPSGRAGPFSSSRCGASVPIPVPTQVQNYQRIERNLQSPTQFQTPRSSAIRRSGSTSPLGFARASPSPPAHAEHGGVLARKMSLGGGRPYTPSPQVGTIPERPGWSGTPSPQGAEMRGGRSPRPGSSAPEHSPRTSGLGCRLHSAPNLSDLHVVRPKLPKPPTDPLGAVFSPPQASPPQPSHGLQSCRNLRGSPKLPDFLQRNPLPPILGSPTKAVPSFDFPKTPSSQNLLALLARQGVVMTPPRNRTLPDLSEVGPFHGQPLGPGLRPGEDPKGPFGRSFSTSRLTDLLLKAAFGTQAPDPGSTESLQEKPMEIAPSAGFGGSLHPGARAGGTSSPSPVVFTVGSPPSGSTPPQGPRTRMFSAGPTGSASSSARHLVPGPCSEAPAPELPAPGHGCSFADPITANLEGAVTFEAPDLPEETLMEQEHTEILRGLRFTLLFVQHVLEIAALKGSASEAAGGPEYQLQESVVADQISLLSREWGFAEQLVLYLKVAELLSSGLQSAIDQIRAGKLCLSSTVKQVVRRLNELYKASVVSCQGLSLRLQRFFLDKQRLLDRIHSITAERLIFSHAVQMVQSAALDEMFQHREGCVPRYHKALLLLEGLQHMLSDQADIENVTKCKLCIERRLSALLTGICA

[7] abbreviates: read-out: Percent control / Zanubrutinib.
[8] abbreviates: read-out: Percent control / Tirabrutinib.
Where [9] appears, read: read-out: Percent control / Ibrutinib.
Setting [10] is: read-out: Percent control / Acalabrutinib.

The results in this text go back to PMC10004634 (PLOS ONE, 2023).

Read-outs that look alike come from different tables or passages of the source.

Chain of CAMK1D (Q8IU85 whole entry): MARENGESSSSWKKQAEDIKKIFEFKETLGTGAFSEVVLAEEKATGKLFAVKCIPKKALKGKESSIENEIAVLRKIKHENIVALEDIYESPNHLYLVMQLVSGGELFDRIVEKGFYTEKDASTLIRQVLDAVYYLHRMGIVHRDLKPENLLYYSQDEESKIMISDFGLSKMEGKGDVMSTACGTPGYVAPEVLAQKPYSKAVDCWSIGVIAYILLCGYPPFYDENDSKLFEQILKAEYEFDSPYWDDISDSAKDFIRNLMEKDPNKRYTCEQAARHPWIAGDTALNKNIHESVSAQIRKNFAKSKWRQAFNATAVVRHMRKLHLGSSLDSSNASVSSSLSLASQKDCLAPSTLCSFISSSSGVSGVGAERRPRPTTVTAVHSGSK

Turning to `C=CC(=O)N1CCC([C@@H]2CCNc3c(C(N)=O)c(-c4ccc(Oc5ccccc5)cc4)nn32)CC1` [Zanubrutinib], the remaining binding at 0.3 µM was found to be 81% in assay [1] (setting [7]); 90% in assay [2] (setting [7]); 96% in assay [3] (setting [7]); 94% in assay [4] (setting [7]); 93% in assay [5] (setting [7]); 100% in assay [6] (setting [7]).

Take `CC#CC(=O)N1CC[C@@H](n2c(=O)n(-c3ccc(Oc4ccccc4)cc3)c3c(N)ncnc32)C1` [Tirabrutinib]: the remaining binding at 0.3 µM in assay [1] (setting [8]) is 99%; in assay [2] (setting [8]) it was 98%; in assay [3] (setting [8]), 87%; in assay [6] (setting [8]), 74%.

Turning to `C=CC(=O)N1CCC[C@@H](n2nc(-c3ccc(Oc4ccccc4)cc3)c3c(N)ncnc32)C1` [Ibrutinib], the remaining binding at 0.3 µM amounted to 97% in assay [1] (setting [9]); 47% in assay [2] (setting [9]); 75% in assay [3] (setting [9]); 94% in assay [4] (setting [9]); 86% in assay [5] (setting [9]); 85% in assay [6] (setting [9]).

As for `CC#CC(=O)N1CCC[C@H]1c1nc(-c2ccc(C(=O)Nc3ccccn3)cc2)c2c(N)nccn12` [Acalabrutinib], the remaining binding at 0.3 µM in assay [1] (setting [10]) came out at 71%; in assay [2] (setting [10]), 86%; in assay [3] (setting [10]) it was 81%; in assay [4] (setting [10]), 85%; in assay [5] (setting [10]), 90%; in assay [6] (setting [10]), 95%.
